Read-outs that look alike come from different tables or passages of the source.

The conditions of series [1]: cited from earlier work.
For series [2] the following is noted: aqueous solution; cited from earlier work.
The next series concerns L. monocytogenes. The experiment in a line: Microbial growth/survival of L. monocytogenes in frankfurter samples. As to conditions: equal dosage levels, storage 5° C., no nitrites. Type of series: cell-based. How it is done:
No nitrites were added to the samples. […] The frankfurters were subject to sensory testing.

In series [3] the test system is B. cereus and B. subtilis. The experiment in a line: Bacillus spp. counts in inoculated bread post baking. Type of series: cell-based. As to conditions: salt level 1.2% w/w, immediately post baking and after cooling. How it is done:
A salt sample according to Example 7 of the invention was used to test the microbial growth in bread. […] Inoculated and uninoculated loaves (controls) were microbiologically analyzed over 6 days storage at 21° C. and 25° C. Analysis was carried out on day 0 (post baking and after cooling), day 1, day 2 and day 6. The results highlighted two main differences between the two salt types.

Series [4] concerns total aerobic viable counts. The experiment in a line: Total aerobic viable counts in un-inoculated control bread during storage. It is filed as cell-based. To be noted: end of storage (Day 6), both storage temperatures (21° C. and 25° C.). The protocol: A salt sample according to Example 7 of the invention was used to test the microbial growth in bread. […] Inoculated and uninoculated loaves (controls) were microbiologically analyzed over 6 days storage at 21° C. and 25° C. […] The results highlighted two main differences between the two salt types.

As to `[Cl-].[K+]` [KCl, potassium chloride], the Aqueous solubility in series [1] (Temperature 0 °C) is given as 21.74 mass-% of solute; in series [1] (Temperature 20 °C) it was 25.39 mass-% of solute; in series [1] (Temperature 40 °C), 28.59 mass-% of solute; in series [1] (Temperature 60 °C), 31.40 mass-% of solute; in series [1] (Temperature 80 °C) it was 33.86 mass-% of solute; in series [1] (Temperature 100 °C), 36.05 mass-% of solute.
Regarding `[Cl-].[Cl-].[Mg+2]` [MgCl2, magnesium chloride], the stability constant result in series [2] is recorded as “zero”.
As for `[Cl-].[Na+]` [NaCl, sodium chloride], the “storage time until increase of L. monocytogenes to a count of 4 Log” value in the series on L. monocytogenes was found to be 23 days. The “log drop in Bacillus spp. counts” value in series [3] is recorded as “up to 3.4 Log”. Further, the “total aerobic viable counts” value in series [4] is on record as 10^4-10^5 cfu/g.
